Data: US20190169181A1, “FUMAGILLOL COMPOUNDS AND METHODS OF MAKING AND USING SAME” (Zafgen, Inc., priority 2016, published 2019)
Structures can show the parent of a compound that is named as a salt.

How the values were obtained:
[1] = tested on: Diet Induced Obese (DIO) C57BL/6 mice; assay: 10 day DIO mouse model, weight loss vs. vehicle; type: in vivo; details: 240 h; for inhibition in vivo at 0.3 mg/kg: 0.3 mpk sc once a day for 10 days; for inhibition in vivo at 1 mg/kg: 1.0 mpk sc once a day for 10 days
Description: The objective of this study design was to investigate the efficacy of disclosed compounds in a 10 day DIO mouse model. Effects on body weight, food intake, hematology and blood chemistry were the primary readouts of this study design. Male, Diet Induced Obese (DIO) C57BL/6 mice, 19-21 weeks of age (13-15 weeks on high fat diet) were ordered from a certified vendor and upon receipt were housed on irradiated corncob bedding in micro-isolator cages on a 12-hour light-dark cycle (0700-1900) at 68-74° F. and 30-70% humidity. Mice were fed Research Diets D12492 (60% Kcal fat, 20% Kcal carbohydrate and 20% protein) and provided water ad libitum. DIO mice were received and housed in the facility for approximately two weeks prior to the start of test article administration. On Day −4 or −3, mice were randomized into study groups based on body weight and body weights were continued to be recorded daily for the duration of the study. Daily food intake was assessed starting on Study Day −2 by weighing of the food with hopper together to avoid loss of food in transfer.
Compounds were formulated into a 100% DMSO stock (at 9 mg/mL) prior to the start, and further diluted into the target working concentration using the vehicle of 10% DMSO in water. Prior to test article administration, starting on Day −3 a dosing acclimation occurred with all animals receiving a subcutaneous injection of vehicle (10% DMSO) only for 3 days. Starting on Day 1, test compounds or vehicle were administered based on individual body weight, subcutaneously, once a day for 10 days. All mice were sacrificed on Day 11, 24 hours following the final dosing on Day 10. After sacrifice, whole blood was collected and analyzed for hematology and blood chemistry parameters.
Compounds were tested for weight loss vs. vehicle at 0.3 and 1.0 mpk sc (mg per kg animal weight delivered subcutaneously), and the results are shown in Table 2 below.

recombinant human MetAP2 = molecular target: T1, recombinant human MetAP2 (Homo sapiens, UniProt P50579); assay: Recombinant human MetAP2 enzyme inhibition assay (MAS peptide / amino acid oxidase / Amplex Ultrared readout); type: biochemical; details: Flag tagged human recombinant MetAP2, 25 minutes at 25° C.
T1 construct: Flag; made in house
T1 sequence (P50579 whole entry): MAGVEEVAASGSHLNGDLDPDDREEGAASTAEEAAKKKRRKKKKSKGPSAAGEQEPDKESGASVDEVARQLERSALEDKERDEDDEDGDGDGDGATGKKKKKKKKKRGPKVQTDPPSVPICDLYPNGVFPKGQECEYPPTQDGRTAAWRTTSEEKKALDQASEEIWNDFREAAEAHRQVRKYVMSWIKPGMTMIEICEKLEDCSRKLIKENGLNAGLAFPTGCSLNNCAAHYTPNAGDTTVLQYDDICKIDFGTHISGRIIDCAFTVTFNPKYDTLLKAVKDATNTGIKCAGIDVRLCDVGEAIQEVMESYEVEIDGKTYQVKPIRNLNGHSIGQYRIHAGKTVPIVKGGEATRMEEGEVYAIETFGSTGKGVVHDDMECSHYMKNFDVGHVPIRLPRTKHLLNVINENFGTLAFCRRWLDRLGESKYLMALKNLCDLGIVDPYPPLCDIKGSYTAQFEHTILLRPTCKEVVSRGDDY
Protocol: Compounds are tested for their capacity to inhibit recombinant human MetAP2 activity using the following assay.
Flag tagged Human recombinant MetAP2 expressed and isolated for use as the enzyme source. 10 mM stock solutions of compounds were prepared in 100% DMSO and further diluted in 100% DMSO required concentration to 1 mM stocks. The stock compound solutions and DMSO vehicle controls were diluted to target final compound concentrations using assay buffer to a final concentration of 50 mM HEPES containing 100 mM NaCl, pH adjusted to 7.5. The MAS peptide was formulated to a 7.5 mM stock in distilled water and prior to use further diluted 1:4. […] 40 μl of enzyme was mixed with 100 μl of MnCl2 then further diluted in assay buffer to a final concentration of 16 μg/ml. To test for compound effect on MetAP2 enzyme activity, 5 μl of test compound, 10 μl of MAS substrate/amino acid oxidase mixture, 10 μl of MetAP2 was added to test wells in a 384 well black plate with blank wells containing no enzyme, replaced with 10 μl of assay buffer. All compounds were tested in duplicate on two occasions on the same day.
The plate was sealed with a TopSeal A cover and mixed briefly on an orbital mixer at 900 rpm. The plate was incubated for a further 25 minutes at 25° C. A 5× stock of Amplex buffer was prepared (0.25 M sodium phosphate, pH 7.4) and stored at 4° C. […] Horse radish peroxidase was diluted in […] of Amplex buffer, 100 μl of this was combined with 50 μl of Amplex Ultrared in […] of 1× Amplex buffer to generate sufficient detection reagent for a 384 well plate. 25 μl detection reagent was added to each well of the test plate, which was re-sealed and mixed briefly on an orbital shaker. The plate was transferred to an Envision Multi-label reader and RFU measured corresponding to excitation 531 nm and emission 595 nm. At the end of the MetAP2 incubation 25 μl Amplex/HRP mixture per well was added and the plate read plate on a plate reader.

Row | SMILES | IC50 (recombinant human MetAP2) [µM] | inhibition in vivo at 0.3 mg/kg [1] [%] | inhibition in vivo at 1 mg/kg [1] [%]
1 | CO[C@@H]1[C@H](OC(=O)N[C@H](c2cc(=O)cc[nH]2)C(C)C)CC[C@]2(CO2)[C@H]1[C@@]1(C)O[C@@H]1CC=C(C)C [Example 20, (3R,4S,5S,6R)-5-methoxy-4-((2R,3R)-2-methyl-3-(3-methylbut-2-enyl)oxiran-2-yl)-1-oxaspiro[2.5]octan-6-yl (S)-2-methyl-1-(4-oxo-1,4-dihydropyridin-2-yl)propylcarbamate] | < 0.05 | 3.4 | 3.3
2 | CO[C@@H]1[C@H](OC(=O)N[C@H](c2cnn(C[C@H]3CCN(C)C3)c2)C(C)C)CC[C@]2(CO2)[C@H]1[C@@]1(C)O[C@@H]1CC=C(C)C [Example 22, (3R,4S,5S,6R)-5-methoxy-4-((2R,3R)-2-methyl-3-(3-methylbut-2-enyl)oxiran-2-yl)-1-oxaspiro[2.5]octan-6-yl (S)-2-methyl-1-(1-(((S)-1-methylpyrrolidin-3-yl)methyl)-1H-pyrazol-4-yl)propylcarbamate formate] | 0.05 to 0.5 | 4.7 | 
3 | CO[C@@H]1[C@H](OC(=O)N[C@H](c2cnn(C[C@@H]3CCN(C)C3)c2)C(C)C)CC[C@]2(CO2)[C@H]1[C@@]1(C)O[C@@H]1CC=C(C)C [Example 23, (3R,4S,5S,6R)-5-methoxy-4-((2R,3R)-2-methyl-3-(3-methylbut-2-enyl)oxiran-2-yl)-1-oxaspiro[2.5]octan-6-yl (S)-2-methyl-1-(1-(((R)-1-methylpyrrolidin-3-yl)methyl)-1H-pyrazol-4-yl)propylcarbamate] | 0.05 to 0.5 | 5.1 | 
4 | CO[C@@H]1[C@H](OC(=O)N[C@H](c2cn(C[C@H]3CCN(C)C3)c(C)n2)C(C)C)CC[C@]2(CO2)[C@H]1[C@@]1(C)O[C@@H]1CC=C(C)C [Example 24, (3R,4S,5S,6R)-5-methoxy-4-((2R,3R)-2-methyl-3-(3-methylbut-2-enyl)oxiran-2-yl)-1-oxaspiro[2.5]octan-6-yl (S)-2-methyl-1-(2-methyl-1-(((S)-1-methylpyrrolidin-3-yl)methyl)-1H-imidazol-4-yl)propylcarbamate] | 0.05 to 0.5 | 8.2 | 
5 | CO[C@@H]1[C@H](OC(=O)N[C@H](c2ccc(N3CC(F)(F)C3)nc2)C(C)C)CC[C@]2(CO2)[C@H]1[C@@]1(C)O[C@@H]1CC=C(C)C [Example 25, (3R,4S,5S,6R)-5-methoxy-4-((2R,3R)-2-methyl-3-(3-methylbut-2-enyl)oxiran-2-yl)-1-oxaspiro[2.5]octan-6-yl (S)-1-(6-(3,3-difluoroazetidin-1-yl)pyridin-3-yl)-2-methylpropylcarbamate] | 0.05 to 0.5 | 13 | 
6 | CO[C@@H]1[C@H](OC(=O)N[C@H](c2ccc(N3CCOCC3)nc2)C(C)C)CC[C@]2(CO2)[C@H]1[C@@]1(C)O[C@@H]1CC=C(C)C [Example 26, (3R,4S,5S,6R)-5-methoxy-4-((2R,3R)-2-methyl-3-(3-methylbut-2-enyl)oxiran-2-yl)-1-oxaspiro[2.5]octan-6-yl (S)-2-methyl-1-(6-morpholinopyridin-3-yl)propylcarbamate] | 0.05 to 0.5 | 7.2 | 
7 | CC[C@@H](Cc1noc(=O)[nH]1)NC(=O)O[C@@H]1CC[C@]2(CO2)[C@@H]([C@@]2(C)O[C@@H]2CC=C(C)C)[C@@H]1OC [Example 29, (3R,4S,5S,6R)-5-methoxy-4-((2R,3R)-2-methyl-3-(3-methylbut-2-enyl)oxiran-2-yl)-1-oxaspiro[2.5]octan-6-yl (S)-1-(5-oxo-4,5-dihydro-1,2,4-oxadiazol-3-yl)butan-2-ylcarbamate] | < 0.05 |  | 3.6
8 | CO[C@@H]1[C@H](OC(=O)N[C@H](Cc2nnc(N)s2)C(C)C)CC[C@]2(CO2)[C@H]1[C@@]1(C)O[C@@H]1CC=C(C)C [Example 36, (3R,4S,5S,6R)-5-methoxy-4-((2R,3R)-2-methyl-3-(3-methylbut-2-en-1-yl)oxiran-2-yl)-1-oxaspiro[2.5]octan-6-yl ((R)-1-(5-amino-1,3,4-thiadiazol-2-yl)-3-methylbutan-2-yl)carbamate] | 0.05 to 0.5 |  | 2
9 | CO[C@@H]1[C@H](OC(=O)N[C@@H](Cc2nnc(N)s2)C(C)C)CC[C@]2(CO2)[C@H]1[C@@]1(C)O[C@@H]1CC=C(C)C [Example 37, (3R,4S,5S,6R)-5-methoxy-4-((2R,3R)-2-methyl-3-(3-methylbut-2-enyl)oxiran-2-yl)-1-oxaspiro[2.5]octan-6-yl (S)-1-(5-amino-1,3,4-thiadiazol-2-yl)-3-methylbutan-2-ylcarbamate] | 0.05 to 0.5 | 2.5 | 

Now from value to compound, other results behind:

Row | IC50 (recombinant human MetAP2) [µM] | SMILES | inhibition in vivo at 0.3 mg/kg [1] [%] | inhibition in vivo at 1 mg/kg [1] [%]
10 | < 0.05 | CO[C@@H]1[C@H](OC(=O)N[C@H](Cc2nnc[nH]2)C(C)C)CC[C@]2(CO2)[C@H]1[C@@]1(C)O[C@@H]1CC=C(C)C [Example 31, (3R,4S,5S,6R)-5-methoxy-4-((2R,3R)-2-methyl-3-(3-methylbut-2-enyl)oxiran-2-yl)-1-oxaspiro[2.5]octan-6-yl (R)-3-methyl-1-(4H-1,2,4-triazol-3-yl)butan-2-ylcarbamate] | 2.4 | 2.5
11 | < 0.05 | CO[C@@H]1[C@H](OC(=O)N[C@H](Cc2nnc(N)o2)C(C)C)CC[C@]2(CO2)[C@H]1[C@@]1(C)O[C@@H]1CC=C(C)C [Example 32, (3R,4S,5S,6R)-5-methoxy-4-((2R,3R)-2-methyl-3-(3-methylbut-2-enyl)oxiran-2-yl)-1-oxaspiro[2.5]octan-6-yl (R)-1-(5-amino-1,3,4-oxadiazol-2-yl)-3-methylbutan-2-ylcarbamate] | 3.9 | 0.8
12 | 0.05 to 0.5 | CNc1nnc(C[C@@H](NC(=O)O[C@@H]2CC[C@]3(CO3)[C@@H]([C@@]3(C)O[C@@H]3CC=C(C)C)[C@@H]2OC)C(C)C)o1 [Example 33, (3R,4S,5S,6R)-5-methoxy-4-((2R,3R)-2-methyl-3-(3-methylbut-2-enyl)oxiran-2-yl)-1-oxaspiro[2.5]octan-6-yl (R)-3-methyl-1-(5-(methylamino)-1,3,4-oxadiazol-2-yl)butan-2-ylcarbamate] | 3.7 | 1
13 | 0.05 to 0.5 | CNc1nnc(C[C@H](NC(=O)O[C@@H]2CC[C@]3(CO3)[C@@H]([C@@]3(C)O[C@@H]3CC=C(C)C)[C@@H]2OC)C(C)C)s1 [Example 34, (3R,4S,5S,6R)-5-methoxy-4-((2R,3R)-2-methyl-3-(3-methylbut-2-enyl)oxiran-2-yl)-1-oxaspiro[2.5]octan-6-yl (S)-3-methyl-1-(5-(methylamino)-1,3,4-thiadiazol-2-yl)butan-2-ylcarbamate] | 3.4 | 
14 | 0.05 to 0.5 | CNc1nnc(C[C@@H](NC(=O)O[C@@H]2CC[C@]3(CO3)[C@@H]([C@@]3(C)O[C@@H]3CC=C(C)C)[C@@H]2OC)C(C)C)s1 [Example 35, (3R,4S,5S,6R)-5-methoxy-4-((2R,3R)-2-methyl-3-(3-methylbut-2-enyl)oxiran-2-yl)-1-oxaspiro[2.5]octan-6-yl (R)-3-methyl-1-(5-(methylamino)-1,3,4-thiadiazol-2-yl)butan-2-ylcarbamate] |  | 1
